Measured values from PubChem BioAssay AID179 (DTP/NCI, 2004).
“And” between values parts separate entries of the source, which are not always exact repeats. Equal entries are not always repeated. The source made the active and inactive calls.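 The calls were made as follows: active = compounds giving half or more protection of infected cells from virus-caused growth loss, again on retest; inactive = the rest.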

Test system: CEM cells HIV-1 protection, formazan growth assay
Assay: NCI AIDS Antiviral Assay
Conditions: for IC50: measured here: growth of uninfected CEM cells
Summary of the method: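 Screen of anti-HIV-1 activity in human CEM cells using a formazan-based growth measurement at five drug concentrations. Hits with 50% or greater protection were repeated, and confirmation required reproducible complete protection.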

SMILES | outcome | EC50 | IC50
COc1ccc(S(=O)(=O)N[C@H](C(=O)O)c2ccccc2)cc1 | inactive | – | –
N#Cc1[nH]c(=S)[nH]c1N | – | > 200 µM | 117 µM
O=C1C=CC(=O)N1n1c(-c2ccccc2)n[nH]c1=O | – | 95.5 µM | 955 µM
Cc1cn(COCCCOCC(=O)c2ccccc2)c(=O)[nH]c1=O | – | 93.3 µM | > 200 µM
CC1CC(C)(C)N=C(C(C)CC2CCCCC2)O1 (stereo not given) | – | > 200 µM | 21.9 µM
NC(=NCC(=O)O)c1ncn(C2OC(CO)C(O)C2O)n1 (stereo not given) | inactive | – | –
Cc1cccc(N=C2NC(=O)C(CC(=O)Nc3ccccc3Cl)S2)c1 (stereo not given) | – | > 10 µM | > 10 µM
CC(C)(C)c1cc(C(O)(C(F)(F)F)C(F)(F)F)c(S)c(C(O)(C(F)(F)F)C(F)(F)F)c1 | – | > 200 µM | 3.47 µM
CC(=O)OC[C@@H](OC(C)=O)[C@H](OC(C)=O)[C@@H]1OC(C)(C)O[C@@H]1C1SCCCS1 | – | > 200 µM | > 200 µM
O=C1O/C(=C(\Br)c2cccc3ccccc23)c2ccccc21 | – | > 7.76 µM | > 7.76 µM
Cc1c(-c2ccccc2)cc(O)c2nc3ccccc3n12 | – | > 200 µM | 19.5 µM
Cn1c(=O)c2[nH]c(Nc3cccc(Cl)c3)nc2n(C)c1=O | – | > 200 µM | 10.7 µM
Cc1nc(N)nc(N)c1N1CCN(c2ccc([N+](=O)[O-])cc2)CC1 | – | > 100 µM | 27.5 µM
CCOC(C[Se]CC(OCC)OCC)OCC | – | 37.2 µM | 112 µM
Cc1ccc([P+](Cc2ccccc2)(c2ccccc2)c2ccc(C)cc2)cc1 | – | > 200 µM | 0.741 µM
CS(=O)(=O)N1CC(CCl)c2ccc([N+](=O)[O-])cc21 (stereo not given) | – | 91.2 µM | > 200 µM
COC(=O)C(C)Sc1nc2cc(Cl)ccc2s1 (stereo not given) | – | > 200 µM | 174 µM
ClC(Cl)=C1C(=C(Cl)Cl)C(Cl)(Cl)C1(Cl)Cl | – | > 52.5 µM | 2.82 µM
CNS(=O)(=O)NNS(=O)(=O)c1cccc([N+](=O)[O-])c1 | – | > 83.2 µM | > 83.2 µM
N#Cc1c(N)nc([Se]CC(=O)c2ccc(Cl)cc2)c(C#N)c1-c1ccco1 | – | > 200 µM | 141 µM
C=CCN1C(=O)CS/C1=N/NC(=O)C(O)(c1ccccc1)c1ccccc1 | – | > 200 µM | 129 µM
CCOC(=O)C(=Cc1ccc(Br)cc1)C(=O)OCC | – | > 57.5 µM | 11.7 µM
CCOC(=O)c1ccc(C(O)CC(=O)OC(C)(C)C)[nH]1 (stereo not given) | – | > 200 µM | 38 µM

SMILES | outcome | EC50 | IC50
Cc1n[nH]c2ccc([N+](=O)[O-])cc2c1=O | – | > 57.5 µM | > 57.5 µM
CCC(CO)NC(=O)Nc1ccc(S(=O)(=O)c2ccc([N+](=O)[O-])cc2)cc1 (stereo not given) | – | > 200 µM | 12 µM
C[Se]CCC1OC[C@H]2O[C@@H](n3cc(C)c(=O)[nH]c3=O)C[C@H]2N1O (stereo not given in full) | active | – | –
CC(CN1CCCCC1)SSC(C)CN1CCCCC1 (stereo not given) | – | > 200 µM | 24 µM
Cc1nc(NCc2ccccc2)c2cc[nH]c2n1 | – | > 174 µM | 107 µM
CCc1cn(C2CC(CO)C(CO)S2)c(=O)[nH]c1=O (stereo not given) | – | > 200 µM | > 200 µM
CSC(=S)NNC(=O)c1ccncc1 | – | > 12 µM | > 12 µM
COc1ccc2c(n1)Sc1c(Cl)nc(N)nc1N2 | – | > 158 µM | > 158 µM
CNC(=O)n1ncc2ccc([N+](=O)[O-])cc21 | – | > 200 µM | 158 µM
CCCOC(C)OCCC#CCC(C)OC(=O)CC(Cl)(Cl)Cl (stereo not given) | – | > 200 µM | > 200 µM
C[N+](C)(C)CC1CCCC/C1=N\OC(=O)c1ccccc1 (stereo not given) | – | > 603 µM | 575 µM
CCOC(=O)CCCN(C(=O)c1ccccc1)c1scc(-c2ccccc2)c1C(=O)OCC | – | > 200 µM | 11.5 µM
CC(C)CC(NC(=O)OCc1ccccc1)C(=O)NCCCCC(N)C(=O)NC(CCCCNC(=O)C(CC(C)C)NC(=O)OCc1ccccc1)C(=O)NC(CCCCNC(=O)C(CC(C)C)NC(=O)OCc1ccccc1)C(=O)NC(CCCCNC(=O)C(CC(C)C)NC(=O)OCc1ccccc1)C(=O)NC(CCCCNC(=O)C(CC(C)C)NC(=O)OCc1ccccc1)C(=O)NC(CCCCNC(=O)C(CC(C)C)NC(=O)OCc1ccccc1)C(=O)O (stereo not given) | – | > 100 µM | > 100 µM
C[Si](C)(/C=C(\Br)CCOC1CCCCO1)c1ccccc1 (stereo not given) | inactive | – | –
CCOP(=O)(OCC)/C(C#N)=C/c1ccc(F)cc1 | – | > 891 µM | > 891 µM
CN1CC[C@@H](c2c(O)cc(O)c3c(=O)cc(-c4ccccc4Cl)oc23)[C@@H](O)C1 | – | 0.01 µM | 0.0468 µM
Cc1cc2n([O-])cccc-2[n+](=O)c1 | – | > 200 µM | > 200 µM
Oc1c(OCc2nnc(CCCCCCCCc3nnc(COc4ccc5ccccc5c4O)o3)o2)ccc2ccccc12 | – | > 200 µM | > 200 µM
Nc1cccc2c1C1=NNC(=O)CC1C2 (stereo not given) | inactive | – | –
CC(C)=CCSC1CC2C(CC1(C)O)C2(C)C (stereo not given) | – | > 200 µM | 110 µM and 112 µM
Oc1ccccc1C(Nc1nc2ccccc2s1)c1ccc2cccnc2c1O (stereo not given) | – | > 33.9 µM | 2.57 µM
Cc1cc2c(cc1C)C(=O)/C(=C/c1ccccc1C(=O)O)C2 | – | > 145 µM | 45.7 µM
